What was measured:
[1] = target: PIK3CA (human) (UniProt P42336); assay: Assessment of PIK3CA Kinase Activity
[2] = target: PIK3CB (Human) (UniProt P42338); assay: Assessment of PIK3CB Kinase Activity
[3] = target: PIK3CA (human), P42336 [H1047R]; assay: Assessment of PIK3CA(H1047R) Kinase Activity
[4] = target: PIK3CG (human) (UniProt P48736); assay: Assessment of PIK3CG Kinase Activity
[5] = target: PIK3CA (human), P42336 [E545K]; assay: Assessment of PIK3CA(E545K) Kinase Activity
Sequence of PIK3CA (human), P42336 [E545K] (P42336 whole entry E545K, looked up): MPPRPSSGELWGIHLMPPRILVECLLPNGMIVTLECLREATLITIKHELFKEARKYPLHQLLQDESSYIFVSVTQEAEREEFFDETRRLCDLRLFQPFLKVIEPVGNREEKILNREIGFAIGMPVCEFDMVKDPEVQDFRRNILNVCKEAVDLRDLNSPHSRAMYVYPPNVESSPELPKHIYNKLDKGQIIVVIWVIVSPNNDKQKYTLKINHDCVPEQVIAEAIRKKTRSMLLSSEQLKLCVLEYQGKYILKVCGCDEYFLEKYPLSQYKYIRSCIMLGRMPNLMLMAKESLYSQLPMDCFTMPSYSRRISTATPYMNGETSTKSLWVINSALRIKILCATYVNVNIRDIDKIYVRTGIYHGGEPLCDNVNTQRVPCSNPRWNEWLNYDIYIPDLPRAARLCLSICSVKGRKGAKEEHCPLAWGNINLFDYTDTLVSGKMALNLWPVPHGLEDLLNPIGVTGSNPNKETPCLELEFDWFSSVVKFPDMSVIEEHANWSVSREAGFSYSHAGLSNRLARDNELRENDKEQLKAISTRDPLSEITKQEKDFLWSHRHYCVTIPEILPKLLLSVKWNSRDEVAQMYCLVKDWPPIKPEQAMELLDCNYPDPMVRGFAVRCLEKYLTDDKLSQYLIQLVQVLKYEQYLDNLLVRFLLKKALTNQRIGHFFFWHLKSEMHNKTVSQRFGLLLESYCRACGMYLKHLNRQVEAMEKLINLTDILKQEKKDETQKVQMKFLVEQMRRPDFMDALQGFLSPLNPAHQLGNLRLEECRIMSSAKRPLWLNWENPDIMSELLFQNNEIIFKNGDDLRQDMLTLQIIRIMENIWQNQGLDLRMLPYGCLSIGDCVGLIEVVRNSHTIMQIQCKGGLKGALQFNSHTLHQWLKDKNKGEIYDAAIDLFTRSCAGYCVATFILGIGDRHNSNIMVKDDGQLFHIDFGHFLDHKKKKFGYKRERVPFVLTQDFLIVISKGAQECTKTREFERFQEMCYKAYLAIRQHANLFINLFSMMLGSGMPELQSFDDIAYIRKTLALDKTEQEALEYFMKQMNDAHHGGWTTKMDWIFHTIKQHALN

Sequence of PIK3CB (Human) (P42338 whole entry, looked up): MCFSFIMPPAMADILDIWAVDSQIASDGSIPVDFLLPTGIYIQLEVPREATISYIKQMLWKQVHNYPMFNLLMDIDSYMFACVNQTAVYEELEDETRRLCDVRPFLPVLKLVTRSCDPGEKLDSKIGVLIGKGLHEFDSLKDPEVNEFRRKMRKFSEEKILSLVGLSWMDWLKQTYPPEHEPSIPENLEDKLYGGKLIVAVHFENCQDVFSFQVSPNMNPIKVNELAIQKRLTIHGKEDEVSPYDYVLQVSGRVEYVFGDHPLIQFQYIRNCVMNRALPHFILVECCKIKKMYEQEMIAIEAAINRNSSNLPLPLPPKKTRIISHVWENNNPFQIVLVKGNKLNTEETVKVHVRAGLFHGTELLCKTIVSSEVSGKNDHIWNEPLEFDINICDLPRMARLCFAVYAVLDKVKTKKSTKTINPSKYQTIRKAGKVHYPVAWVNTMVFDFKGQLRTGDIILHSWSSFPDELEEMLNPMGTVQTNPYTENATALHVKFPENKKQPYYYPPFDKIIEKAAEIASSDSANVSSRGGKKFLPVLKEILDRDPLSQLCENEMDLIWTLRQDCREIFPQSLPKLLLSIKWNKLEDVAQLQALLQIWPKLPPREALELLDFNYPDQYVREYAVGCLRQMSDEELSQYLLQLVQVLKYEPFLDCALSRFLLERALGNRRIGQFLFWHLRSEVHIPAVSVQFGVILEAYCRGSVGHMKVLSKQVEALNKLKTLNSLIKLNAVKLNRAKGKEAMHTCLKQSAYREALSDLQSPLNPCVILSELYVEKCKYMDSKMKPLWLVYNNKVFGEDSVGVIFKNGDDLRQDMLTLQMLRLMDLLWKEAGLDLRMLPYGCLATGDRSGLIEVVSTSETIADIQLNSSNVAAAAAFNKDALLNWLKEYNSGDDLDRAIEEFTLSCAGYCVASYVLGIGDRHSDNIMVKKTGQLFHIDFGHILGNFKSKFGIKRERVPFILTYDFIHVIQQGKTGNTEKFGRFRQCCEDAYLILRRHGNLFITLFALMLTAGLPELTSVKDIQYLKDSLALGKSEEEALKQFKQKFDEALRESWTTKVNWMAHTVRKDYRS
Sequence of PIK3CA (human) (P42336 whole entry, looked up): as the sequence (P42336 whole entry E545K, looked up) above, with K545E counted along it
Sequence of PIK3CA (human), P42336 [H1047R] (P42336 whole entry H1047R, looked up): as the sequence (P42336 whole entry E545K, looked up) above, with K545E, H1047R counted along it
Sequence of PIK3CG (human) (P48736 whole entry, looked up): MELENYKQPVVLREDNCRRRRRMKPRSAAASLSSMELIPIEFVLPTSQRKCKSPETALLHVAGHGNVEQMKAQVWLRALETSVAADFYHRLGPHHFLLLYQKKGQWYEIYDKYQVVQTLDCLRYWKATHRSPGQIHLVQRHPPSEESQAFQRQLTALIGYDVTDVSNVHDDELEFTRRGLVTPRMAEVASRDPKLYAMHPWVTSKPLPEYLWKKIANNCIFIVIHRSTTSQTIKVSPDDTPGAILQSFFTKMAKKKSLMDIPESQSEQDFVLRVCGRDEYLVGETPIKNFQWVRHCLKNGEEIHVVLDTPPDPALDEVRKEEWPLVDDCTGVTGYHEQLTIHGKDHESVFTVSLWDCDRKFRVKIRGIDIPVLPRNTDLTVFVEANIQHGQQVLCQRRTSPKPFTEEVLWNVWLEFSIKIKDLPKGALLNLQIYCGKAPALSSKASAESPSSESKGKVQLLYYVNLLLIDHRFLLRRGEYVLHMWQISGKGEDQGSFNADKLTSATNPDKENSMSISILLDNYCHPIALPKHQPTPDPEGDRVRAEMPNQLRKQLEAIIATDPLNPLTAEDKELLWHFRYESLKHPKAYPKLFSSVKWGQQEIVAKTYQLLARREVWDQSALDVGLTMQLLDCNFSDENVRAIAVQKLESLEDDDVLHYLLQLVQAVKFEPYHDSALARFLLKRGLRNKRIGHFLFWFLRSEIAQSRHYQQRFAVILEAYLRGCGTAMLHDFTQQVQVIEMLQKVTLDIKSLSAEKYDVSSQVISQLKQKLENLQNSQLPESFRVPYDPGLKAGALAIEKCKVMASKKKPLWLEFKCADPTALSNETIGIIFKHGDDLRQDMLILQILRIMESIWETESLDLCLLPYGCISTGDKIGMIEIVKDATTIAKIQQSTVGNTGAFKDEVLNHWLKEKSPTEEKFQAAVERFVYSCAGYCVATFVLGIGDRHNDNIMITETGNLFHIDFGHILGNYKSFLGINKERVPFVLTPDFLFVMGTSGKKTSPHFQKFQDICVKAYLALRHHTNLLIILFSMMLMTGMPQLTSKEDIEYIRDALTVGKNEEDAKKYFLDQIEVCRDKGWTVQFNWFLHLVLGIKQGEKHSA

| IC50 [1] | SMILES | other results |
| --- | --- | --- |
| < 50 nM | CN(C)C(=O)c1ccc(NC(=O)Nc2ccc(-c3nc(N4CCOCC4)c4ccc(-c5cccnc5F)cc4n3)cn2)cc1 | IC50 [2]: < 50 nM; IC50 [3]: < 50 nM; IC50 [4]: < 500 nM; IC50 [5]: < 50 nM |
| < 50 nM | CN(C)C(=O)c1ccc(NC(=O)Nc2ccc(-c3nc(N4CCOCC4)c4ccc(-c5cccc(S(C)(=O)=O)c5)cc4n3)cn2)cc1 | IC50 [2]: < 50 nM; IC50 [3]: < 50 nM; IC50 [4]: < 500 nM; IC50 [5]: < 50 nM |
| < 50 nM | Cc1ccc(-c2ccc3c(N4CCOCC4)nc(-c4ccc(NC(=O)Nc5ccc(C(=O)N(C)C)cc5)cc4)nc3c2)o1 | IC50 [2]: 500 to 1000 nM; IC50 [3]: < 50 nM; IC50 [4]: 500 to 1000 nM; IC50 [5]: < 50 nM |
| < 50 nM | CN(C)C(=O)c1ccc(NC(=O)Nc2ccc(-c3nc(N4CCOCC4)c4ccc(-c5cncnc5)cc4n3)cc2)cc1 | IC50 [3]: < 50 nM; IC50 [5]: < 50 nM |
| < 50 nM | CN(C)C(=O)c1ccc(NC(=O)Nc2ccc(-c3nc(N4CCOCC4)c4ccc(-c5cccc(S(C)(=O)=O)c5)cc4n3)cn2)cc1F | IC50 [2]: < 50 nM; IC50 [3]: < 50 nM; IC50 [4]: < 500 nM; IC50 [5]: < 50 nM |
| 50 to 200 nM | CN(C)C(=O)c1ccc(NC(=O)Nc2ccc(-c3nc(N4CCOCC4)c4ccc(-c5cccnc5F)cc4n3)cc2)c(F)c1 | IC50 [2]: 50 to 500 nM; IC50 [3]: 50 to 500 nM; IC50 [5]: 50 to 500 nM |
| < 50 nM | CN(C)C(=O)c1ccc(NC(=O)Nc2ccc(-c3nc(N4CCOCC4)c4ccc(-c5cncnc5)cc4n3)cc2)c(F)c1 | IC50 [2]: 50 to 500 nM; IC50 [3]: 50 to 500 nM; IC50 [4]: < 500 nM; IC50 [5]: 50 to 500 nM |
| < 50 nM | CN(C)C(=O)c1ccc(NC(=O)Nc2ccc(-c3nc(N4CCOCC4)c4ccc(-c5ccc(C(=O)O)o5)cc4n3)cc2)cc1 | – |
| < 50 nM | CC1CN(c2nc(-c3ccc(NC(=O)Nc4ccc(C(=O)N(C)C)cc4)cc3)nc3cc(-c4cncnc4)ccc23)CCO1 (stereo unspecified) | – |
| < 50 nM | CN(C)C(=O)c1ccc(NC(=O)Nc2ccc(-c3nc(N4CCOCC4)c4cc(F)c(-c5cnn(C)c5)cc4n3)cc2)cc1 | – |
| < 50 nM | CN(C)C(=O)c1ccc(NC(=O)Nc2ccc(-c3nc(N4CCOCC4)c4ccc(-c5cnc(N(C)C)nc5)cc4n3)cc2)cc1 | – |
| < 50 nM | CN(C)C(=O)c1ccc(NC(=O)Nc2ccc(-c3nc(N4CCOCC4)c4ccc(-c5cccs5)cc4n3)cc2)cc1 | – |
| < 50 nM | CN(C)C(=O)c1ccc(NC(=O)Nc2ccc(-c3nc(N4CCOCC4)c4ncc(-c5cnn(C)c5)cc4n3)c(F)c2F)cc1 | – |
| < 50 nM | CN(C)C(=O)c1ccc(NC(=O)Nc2ccc(-c3nc(N4CCOCC4)c4cc(F)c(-c5cncnc5)cc4n3)cc2)cc1 | – |
| 50 to 200 nM | CNC(=O)c1ccc(NC(=O)Nc2ccc(-c3nc(N4CCOCC4)c4ccc(-c5ccc(C)o5)cc4n3)cc2)cc1 | – |
| < 50 nM | CN(C)C(=O)c1ccc(NC(=O)Nc2ccc(-c3nc(N4CCOCC4)c4ccc(-c5ccccn5)cc4n3)c(F)c2)cc1 | – |
| < 50 nM | CC(=O)Nc1cncc(-c2ccc3c(N4CCOCC4)nc(-c4ccc(NC(=O)Nc5ccc(C(=O)N(C)C)cc5)cc4)nc3c2)c1 | – |
| < 50 nM | COc1ccc(-c2ccc3c(N4CCOCC4)nc(-c4ccc(NC(=O)Nc5ccc(C(=O)N(C)C)cc5F)cc4)nc3c2)cn1 | – |
| 50 to 200 nM | Cc1ccc(-c2ccc3c(N4CCOCC4)nc(-c4ccc(NC(=O)Nc5ccc(C(=O)N6CC[C@@H](N(C)C)C6)cc5)cc4)nc3c2)o1 | – |
| < 50 nM | CN(C)C(=O)c1ccc(NC(=O)Nc2ccc(-c3nc(N4CCOCC4)c4ncc(-c5cccnc5)cc4n3)cc2)cc1 | – |
| < 50 nM | COc1ccc2c(N3CCOCC3)nc(-c3ccc(NC(=O)Nc4ccc(C(=O)N(C)C)cc4)cc3)nc2c1 | – |
| < 50 nM | CN(C)CCNC(=O)c1ccc(NC(=O)Nc2ccc(-c3nc(N4CCOCC4)c4ccc(-c5cncnc5)cc4n3)cc2F)cc1 | – |

| IC50 [1] | SMILES | other results |
| --- | --- | --- |
| < 50 nM | CN(C)[C@H]1CCN(C(=O)c2ccc(NC(=O)Nc3ccc(-c4nc(N5CCOCC5)c5ccc(-c6cncnc6)cc5n4)cc3F)cc2)C1 | – |
| < 50 nM | CN(C)C(=O)c1ccc(NC(=O)Nc2ccc(-c3nc(N4CCOCC4)c4ncc(-c5cccnc5)cc4n3)c(F)c2)cc1 | – |
| < 50 nM | CN(C)C(=O)c1ccc(NC(=O)Nc2ccc(-c3nc(N4CCOCC4)c4ncc(-c5ccnnc5)cc4n3)cc2)cc1 | – |
| 50 to 200 nM | CN(C)C(=O)c1ccc(NC(=O)Nc2ccc(-c3nc(N4CCOCC4)c4ccc(-c5cccc(S(C)(=O)=O)c5)cc4n3)cc2)cn1 | – |
| < 50 nM | Cc1ccncc1-c1ccc2c(N3CCOCC3)nc(-c3ccc(NC(=O)Nc4ccc(C(=O)N(C)C)cc4)cc3)nc2c1 | – |
| < 50 nM | COc1ccncc1-c1ccc2c(N3CCOCC3)nc(-c3ccc(NC(=O)Nc4ccc(C(=O)N(C)C)cc4)cc3)nc2c1 | – |
| 50 to 200 nM | CN(C)C(=O)c1ccc(NC(=O)Nc2ccc(-c3nc(N4CCOCC4)c4ccc(-c5cccnc5F)cc4n3)cc2)cn1 | – |
| 50 to 200 nM | Cc1ccc(-c2cccc3c(N4CCOCC4)nc(-c4ccc(NC(=O)Nc5ccc(C(=O)N(C)C)cc5)cc4)nc23)o1 | – |
| 50 to 200 nM | Cc1ccc(-c2ccc3c(N4CCOCC4)nc(-c4ccc(NC(=O)Nc5ccc(C(=O)N(C)C)cc5)cc4)nc3c2)s1 | – |
| < 50 nM | CN(C)C(=O)c1ccc(NC(=O)Nc2ccc(-c3nc(N4CCOCC4)c4ncc(-c5cccnc5F)cc4n3)c(F)c2)cc1 | – |
| < 50 nM | Cc1ccc(-c2ccc3c(N4CCOCC4)nc(-c4ccc(NC(=O)Nc5ccc(C(=O)N6CCC(O)C6)cc5)cc4)nc3c2)o1 (stereo unspecified) | – |
| < 50 nM | CN(C)CCN(C)C(=O)c1ccc(NC(=O)Nc2ccc(-c3nc(N4CCOCC4)c4ccc(-c5ccncc5)cc4n3)cc2)cc1 | – |
| < 50 nM | CN(C)C(=O)c1ccc(NC(=O)Nc2ccc(-c3nc(N4CCOCC4)c4ncc(-c5cncnc5)cc4n3)cc2F)cc1 | – |
| 50 to 200 nM | Cc1ccc(-c2ccc3c(N4CCOCC4)nc(-c4ccc(NC(=O)Nc5ccc(C(=O)N(C)C)c(F)c5)cc4)nc3c2)o1 | – |
| < 50 nM | CN(C)C(=O)c1ccc(NC(=O)Nc2ccc(-c3nc(N4CCOCC4)c4cc(F)c(-c5cncnc5)cc4n3)cc2F)cc1 | – |
| < 50 nM | CN(C)C(=O)c1ccc(NC(=O)Nc2ccc(-c3nc(N4CCOCC4)c4ccc(-c5cnc(O)nc5)cc4n3)cc2)cc1 | – |
| 50 to 200 nM | CN(C)C(=O)c1ccc(NC(=O)Nc2ccc(-c3nc(N4CCOCC4)c4ccc(-c5cccnc5F)cc4n3)cc2)cc1F | – |
| < 50 nM | CN1CCN(C(=O)c2ccc(NC(=O)Nc3ccc(-c4nc(N5CCOCC5)c5cc(F)c(-c6cccnc6)cc5n4)cc3)cc2)CC1 | – |
| < 50 nM | Cc1noc(C)c1-c1cnc2c(N3CCOCC3)nc(-c3ccc(NC(=O)Nc4ccc(C(=O)N(C)C)cc4)cc3)nc2c1 | – |
| 50 to 200 nM | COc1cccc(-c2ccc3c(N4CCOCC4)nc(-c4ccc(NC(=O)Nc5ccc(C(=O)N(C)C)cc5)cc4)nc3c2)c1 | – |
| < 50 nM | CN(C)C(=O)c1ccc(NC(=O)Nc2ccc(-c3nc(N4CCOCC4)c4ncc(-c5cccnc5F)cc4n3)cc2)cc1F | – |
| < 50 nM | CN(C)C(=O)c1ccc(NC(=O)Nc2ccc(-c3nc(N4CCOCC4)c4ccc(-c5cncnc5)cc4n3)cn2)c(F)c1 | – |

| IC50 [1] | SMILES | other results |
| --- | --- | --- |
| < 50 nM | CN(C)CCNC(=O)c1ccc(NC(=O)Nc2ccc(-c3nc(N4CCOCC4)c4ccc(-c5ccco5)cc4n3)cc2)cc1 | – |
| < 50 nM | CN(C)C(=O)c1ccc(NC(=O)Nc2ccc(-c3nc(N4CCOCC4)c4cc(F)c(-c5cccc(S(C)(=O)=O)c5)cc4n3)cc2)cc1 | – |
| < 50 nM | CN(C)[C@@H]1CCN(C(=O)c2ccc(NC(=O)Nc3ccc(-c4nc(N5CCOCC5)c5ncc(-c6cnn(C)c6)cc5n4)cc3F)cc2)C1 | – |
| < 50 nM | CN(C)C(=O)c1ccc(NC(=O)Nc2ccc(-c3nc(N4CCOCC4)c4ncc(-c5cncnc5)cc4n3)c(F)c2)cc1 | – |
| 50 to 200 nM | CN(C)C(=O)c1ccc(NC(=O)Nc2ccc(-c3nc(N4CCOCC4)c4cc(F)c(-c5cncnc5)cc4n3)cc2)c(F)c1 | – |
| 50 to 200 nM | CN(C)C(=O)c1ccc(NC(=O)Nc2ccc(-c3nc(N4CCOCC4)c4ccc(-c5ccnnc5)cc4n3)cc2)cc1 | – |
| < 50 nM | CC(=O)Nc1ccc(NC(=O)Nc2ccc(-c3nc(N4CCOCC4)c4ncc(-c5cnn(C)c5)cc4n3)cc2)cc1 | – |
| < 50 nM | CC(=O)c1ccc(-c2ccc3c(N4CCOCC4)nc(-c4ccc(NC(=O)Nc5ccc(C(=O)N(C)C)cc5)cc4)nc3c2)o1 | – |
| < 50 nM | CN(C)C(=O)c1ccc(NC(=O)Nc2ccc(-c3nc(N4CCOCC4)c4ccc(-c5ccc(C#N)o5)cc4n3)c(F)c2)cc1 | – |
| < 50 nM | CN1CCN(C(=O)c2ccc(NC(=O)Nc3ccc(-c4nc(N5CCOCC5)c5ccc(-c6cccnc6)cc5n4)cc3)cc2)CC1 | – |
| < 50 nM | CN(C)C(=O)c1ccc(NC(=O)Nc2ccc(-c3nc(N4CCOCC4)c4ccc(-c5cncc(S(C)(=O)=O)c5)cc4n3)cc2)cc1 | – |
| 50 to 200 nM | Cc1ccc(-c2ccc3c(N4CCOCC4)nc(-c4ccc(NC(=O)Nc5ccc(C(=O)N(C)C)cc5)cc4F)nc3c2)o1 | – |
| < 50 nM | COc1ncc(-c2ccc3c(N4CCOCC4)nc(-c4ccc(NC(=O)Nc5ccc(C(=O)N(C)C)cc5)cc4F)nc3c2)cn1 | – |
| < 50 nM | CN(C)C(=O)c1ccc(NC(=O)Nc2ccc(-c3nc(N4CCOCC4)c4ncc(-c5cnn(C)c5)cc4n3)cc2F)cc1 | – |
| < 50 nM | CN(C)C(=O)c1ccc(NC(=O)Nc2ccc(-c3nc(N4CCOCC4)c4ccc(-c5cccnc5)cc4n3)c(F)c2)cc1 | – |
| 50 to 200 nM | CN(C)C(=O)c1ccc(NC(=O)Nc2ccc(-c3nc(N4CCOCC4)c4ccc(-c5ccnnc5)cc4n3)cc2F)cc1 | – |
| 50 to 200 nM | Cc1noc(C)c1-c1ccc2c(N3CCOCC3)nc(-c3ccc(NC(=O)Nc4ccc(C(=O)N5CC[C@H](N(C)C)C5)cc4)cc3)nc2c1 | – |
| < 50 nM | CN(C)C(=O)c1ccc(NC(=O)Nc2ccc(-c3nc(N4CCOCC4)c4ncc(-c5cncnc5)cc4n3)cc2)cc1F | – |
| < 50 nM | CN(C)CC(=O)Nc1cncc(-c2ccc3c(N4CCOCC4)nc(-c4ccc(NC(=O)Nc5ccc(C(=O)N(C)C)cc5)cc4)nc3c2)c1 | – |
| 50 to 200 nM | CN1CCN(C(=O)c2ccc(NC(=O)Nc3ccc(-c4nc(N5CCOCC5)c5ccc(-c6ccncc6)cc5n4)cc3F)cc2)CC1 | – |
| < 50 nM | CN(C)C(=O)c1ccc(NC(=O)Nc2ccc(-c3nc(N4CCOCC4)c4ccc(-c5ccc(CO)o5)cc4n3)cc2)c(F)c1 | – |
| 50 to 200 nM | CN1CCN(C(=O)c2ccc(NC(=O)Nc3ccc(-c4nc(N5CCOCC5)c5ccc(-c6ccsc6)cc5n4)cc3)cc2)CC1 | – |

— the Kinase Knowledgebase extract (Sharma et al. 2016)
